Test results published in PMC7600679, “Benzoxazole-Based Metal Complexes to Reverse Multidrug Resistance in Bacteria” (Antibiotics, 2020).
Converted amounts (≈) assume the structure as drawn. Where two headings read alike, the source gives them in different places.

Legend:
E. coli AG100 [1] = test: Real-time ethidium bromide accumulation (efflux pump inhibition, AcrAB-TolC); format: cell-based, Escherichia coli; conditions: compounds at ¼ MIC, EB 1 μg/mL, minute 30
Experimental: (§1) Since multidrug resistance EPs are very important factors contributing to multidrug resistance (MDR) in both Gram-positive and Gram-negative bacteria, the inhibition of these pumps could reverse the resistant phenotype and restore the activity of antibiotics. The effect of compounds on ethidium bromide (EB) accumulation was determined by the automated EB method. This assay was used to determine how much of the fluorescent dye and pump substrate EB was accumulated by the bacterial cells in the presence of the tested compounds. The real-time accumulation of EB was monitored for 30 min in both S. aureus and E. coli strains.
(§2) The accumulation of the efflux pump substrate EB was monitored by the automated EB method using a LightCycler real-time thermocycler (LightCycler 1.5, Roche, Indianapolis, IN, USA). An aliquot of an overnight culture of the S. aureus strains in TSB medium was inoculated into fresh TSB medium, and it was incubated until it reached an optical density (OD) of 0.6 at 600 nm. In the case of E. coli strains, the medium applied in the assay was LB broth; the preparation of the inoculum was similar to the one of S. aureus. The cells were washed with phosphate buffered saline (PBS; pH 7.4) and centrifuged at 13,000 × g for 3 min, the pellets were re-suspended in PBS (pH 7.4), and the OD was calibrated to 0.6 at 600 nm. The compounds were measured at ¼ MIC concentration (in double-concentrated form) to the EB solution in PBS. The final concentration of EB was determined according to the MIC and the fluorescent signal produced by this amount of EB. In the case of all strains, the concentration of EB was 1 μg/mL. Then, 10 μL of the EB solution plus the compound were pipetted into standard glass capillary tubes of 20 µL maximum volume (Roche, Indianapolis, USA), and 10 μL of bacterial culture (OD of 0.6 at 600 nm) were transferred to the capillaries. The capillaries containing the samples were placed into the carousel, and the fluorescence was monitored at the FL-2 channel in every minute on a real-time basis.
(§3) Based on the data obtained, the relative fluorescence index (RFI) of the last time point (minute 30) was determined as follows:RFI = (RFtreated − RFuntreated)/RFuntreated(1) where RFtreated is the relative fluorescence (RF) at the last time point of the EB retention curve in the presence of an inhibitor, and RFuntreated is the relative fluorescence at the last time point of the EB retention curve of the untreated control having the solvent control (DMSO).

E. coli AG100 A [2] = test: Minimum inhibitory concentration (broth microdilution, CLSI); format: cell-based, Escherichia coli; conditions: 18 h
Experimental: Wild-type E. coli K-12 AG100 strain (argE3 thi-1 rpsL xyl mtl Δ(gal-uvrB) supE44) expressing the AcrAB TolC EP at its basal level and its AcrAB-TolC deleted mutant E. coli K-12 AG100 A strain. The strains were donated by Prof. Dr. Hiroshi Nikaido (Department of Molecular and Cell Biology and Chemistry, University of California, Berkeley, CA, USA).
(§4) The minimum inhibitory concentrations (MICs) of compounds were determined in 96-well plates based on the Clinical and Laboratory Standard Institute guidelines (CLSI guidelines). The compounds were diluted in 100 μL of MHB. Then, 10^−4 dilution of an overnight bacterial culture in 100 μL of medium were added to each well, with the exception of the medium control wells.

[3] = system: Staphylococcus aureus ATCC 25923; test: as above; format: cell-based; conditions: S. aureus ATCC 25923, 18 h, visual inspection
Experimental: (§5) The compounds were further investigated against two Gram-positive strains, S. aureus ATCC 25923 (MSSA), used as the methicillin susceptible reference strain, and the methicillin- and ofloxacin-resistant S. aureus 272123 clinical isolate (MRSA), which was given by Prof. Dr. Leonard Amaral (Institute of Hygiene and Tropical Medicine, Lisbon, Portugal).
as §4

S. aureus 272123 (MRSA) [4] = test: as above; format: cell-based, Staphylococcus aureus; conditions: 18 h, visual inspection
Experimental: as §5, §4

E. coli AG100 A [5] = test: Real-time ethidium bromide accumulation (efflux pump inhibition); format: cell-based, Escherichia coli; conditions: compounds at ¼ MIC, EB 1 μg/mL, minute 30
Experimental: as §1, §2, §3

[6] = system: Enterobacter cloacae 31298; test: Minimum inhibitory concentration (broth microdilution, CLSI); format: cell-based; conditions: E. cloacae 31298
Experimental: (§6) The following bacterial strains were applied in the QS tests: C. violaceum 026 as sensor strain and E. cloacae 31298 isolated from clinical wound (used as N-acyl-homoserine lactone (AHL) producer); this strain induced pigment production by C. violaceum and is a model strain to study QS interactions.
as §4

[7] = system: Chromobacterium violaceum 026; test: as above; format: cell-based; conditions: C. violaceum 026
Experimental: as §6, §4

E. coli AG100 [8] = test: as above; format: cell-based, Escherichia coli
Experimental: The strains were donated by Prof. Dr. Hiroshi Nikaido (Department of Molecular and Cell Biology and Chemistry, University of California, Berkeley, CA, USA).
as §4

S. aureus ATCC 25923 = test: Real-time ethidium bromide accumulation (efflux pump inhibition); format: cell-based, Staphylococcus aureus; conditions: compounds at ¼ MIC, EB 1 μg/mL, minute 30
Experimental: as §1, §2, §3

S. aureus 272123 (MRSA) [9] = test: as above; format: cell-based, Staphylococcus aureus; conditions: compounds at ¼ MIC (3 at 12.5 µM), VER at 25 µM, EB 1 μg/mL, minute 30
Experimental: as §1, §2, §3

[10] = system: MRC-5 human embryonal lung fibroblast cell line; test: Cytotoxicity assay (MTT); format: cell-based
Experimental: The MRC-5 human embryonic lung fibroblast cell line (ATCC CCL-171; provider: LGC Promochem, Teddington, UK) was used in the experiments. The cells were cultivated in Eagle’s Minimal Essential Medium (EMEM; Sigma–Aldrich, St. Louis, MO, USA), supplemented with 1% non-essential amino acid mixture, 10% heat-inactivated fetal bovine serum, 2 mM L-glutamine, 1 mM Na-pyruvate, nystatin, and a penicillin–streptomycin mixture in concentrations of 100 U/L and 10 mg/L, respectively. The supplementary components were obtained from Sigma–Aldrich, St. Louis, MO, USA. The cell culture was kept in a humidified atmosphere (5% CO2, 95% air) at 37 °C.
The activity of increasing concentrations of the compounds on cell growth was determined in 96-well flat-bottomed microtiter plates by two-fold serial dilutions of the benzoxazole derivatives. The adherent human embryonic lung fibroblast cells (10^4/well) was seeded in EMEM medium in 96-well microtiter plates for 4 h prior to the assay. The serial dilutions of the compounds were made in a separate plate, and then pipetted to the plates containing the MRC-5 cell line. Culture plates were incubated at 37 °C for 24 h; at the end of the incubation period, 20 μL of MTT (3-(4,5-dimethylthiazol-2-yl)-2,5-diphenyltetrazolium bromide) solution (from a 5 mg/mL stock solution) was measured to each well. After the incubation at 37 °C for 4 h, 100 μL of sodium dodecyl sulfate (SDS) solution (10% SDS in 0.01 M HCl) was added to each well to dissolve the formazan crystals and the samples were further incubated at 37 °C overnight. Cell growth was calculated by measuring the OD at 540 nm (ref. 630 nm) with a Multiscan EX ELISA reader. The cytotoxicity was expressed as IC50 values, defined as the inhibitory dose that reduces the growth of the cells exposed to the tested compounds by 50%.

E. coli AG100 [11] = test: Resistance modulation (MIC reduction) assay with CIP and TET; format: cell-based, Escherichia coli
Experimental: (§7) The resistance modulation effects of compounds with ciprofloxacin (CIP) and tetracycline (TET) antibiotics were evaluated by the MIC reduction method on the Gram-negative E. coli AG100, AG100 A, and the Gram-positive S. aureus ATCC and MRSA strains.
(§8) The chemosensitizing activity of benzoxazole-type ligands and their metal complexes was determined based on the MIC values of the antibiotics in the presence of sub-inhibitory concentrations of the compounds (¼ MIC) in both Gram-negative and Gram-positive strains. The MICs were determined in strains by the two-fold broth microdilution method in 96-well plates, using serial dilutions of TET and CIP. The first four rows contained two-fold dilutions of antibiotics, and combinations of the TET and CIP and tested compounds were transferred into the last four rows. The 10^−4 dilution of an overnight bacterial culture in 50 μL of MHB was then measured to each well, except for the medium control wells. The plates were kept at 37 °C for 18 h. MIC values of antibiotics and their combination with tested compounds were detected by visual inspection.

S. aureus MRSA 272123 = test: as above; format: cell-based, Staphylococcus aureus
Experimental: as §7, §8

[12] = Staphylococcus aureus, ATCC25923
[13] = compound at ¼ MIC, value is the MIC of ciprofloxacin
[14] = E. coli AG100 A (AcrAB-TolC deleted), visual inspection
[15] = E. coli AG100, 18 h, visual inspection, read-out: MIC

| Structure (SMILES) | Relative fluorescence index (RFI) (E. coli AG100 [1]) | MIC (E. coli AG100 A [2]; Escherichia coli, AG100A) [µM] | MIC [3, 12] [µM] | MIC (S. aureus 272123 (MRSA) [4]) [µM] | MIC (S. aureus 272123 (MRSA) [4]; Staphylococcus aureus) [µM] | Relative fluorescence index (RFI) (E. coli AG100 A [5]) | MIC ([6]; Enterobacter cloacae) [µM] | MIC ([7]; Chromobacterium violaceum) [µM] | Relative fluorescence index (RFI) (S. aureus ATCC 25923) | Relative fluorescence index (RFI) (S. aureus 272123 (MRSA) [9]) | Cytotoxic effect (class in words) ([10]; 24 h) | IC50 ([10]; Homo sapiens, MRC5, 24 h) [µM] | MIC (E. coli AG100 A [2]; [14]) [µM] | MIC [3] [µM] | MIC [6] [µM] | MIC [7] [µM] | MIC (E. coli AG100 [8]; [15]) [µM] | IC50 ([10]; 24 h) [µM] | further results |
| --- | --- | --- | --- | --- | --- | --- | --- | --- | --- | --- | --- | --- | --- | --- | --- | --- | --- | --- | --- |
| O=C(Cc1nc2ccccc2o1)C(F)(F)F [Compound 1, 2-trifluoroacetonylbenzoxazole] | −0.35 | 50 (≈ 11.5 µg/mL) | 25 (≈ 5.73 µg/mL) | 12.5 (≈ 2.86 µg/mL) | 12.5 (≈ 2.86 µg/mL) | 0 | > 100 | > 100 | −0.11 | −0.14 | no (IC50 > 100 µM) | > 100 | – | – | – | – | – | – | MIC (E. coli AG100 [8]; Escherichia coli, AG100, 18 h): 50 µM (≈ 11.5 µg/mL) |
| FC(F)(F)C1=Cc2oc3ccccc3[n+]2[Mg-2]2([O]1)[O]C(C(F)(F)F)=Cc1oc3ccccc3[n+]12 [Compound 9] | – | 25 | 25 | – | 6.25 | – | > 100 | > 100 | – | – | no (IC50 > 100 µM) | > 100 | – | – | – | – | – | – | Reduction of the MIC of CIP (E. coli AG100 [11]; compound at ¼ MIC): 2 fold; CIP MIC in combination with compounds (E. coli AG100 [11]; [13]): 0.008 µM; Reduction of the MIC value of CIP (S. aureus MRSA 272123; compound at a quarter of the MIC): 2 fold; CIP MIC in combination with compounds (S. aureus MRSA 272123; [13]): 6.25 µM; MIC (E. coli AG100 [8]; Escherichia coli, E. coli AG100, 18 h, visual inspection, read-out: MIC): 50 µM |
| O=C(O)c1cn(C2CC2)c2cc(N3CCNCC3)c(F)cc2c1=O [CIP, ciprofloxacin, reference compound] | – | – | – | – | – | – | – | – | – | – | – | – | – | – | – | – | – | – | MIC of antibiotic in the absence of the compounds (E. coli AG100 [11]; antibiotic alone): 0.016 µM; MIC of antibiotic in the absence of the compounds (S. aureus MRSA 272123; antibiotic alone): 12.5 µM |
| [O-]C(=Cc1nc2ccccc2o1)C(F)(F)F.[O-]C(=Cc1nc2ccccc2o1)C(F)(F)F.[Pd+2] [Compound 10] | −0.06 | – | – | >100 | – | 0 | – | – | 0 | 0 | weak (IC50: 61–100) | – | >100 | >100 | >100 | >100 | >100 | 89.1 | – |
| [O-]C(=Cc1nc2ccccc2o1)C(F)F.[O-]C(=Cc1nc2ccccc2o1)C(F)F.[Zn+2] [Compound 6] | 0.08 | – | – | 12.5 | – | −0.15 | – | – | 0.08 | −0.02 | strong (IC50: 0–30) | – | 12.5 | 25 | >100 | >100 | 50 | 4.72 | – |
